Test results taken from article PMC6389993, “Quercetin and its metabolite isorhamnetin promote glucose uptake through different signalling pathways in myotubes” (Scientific Reports, 2019).

How the values were obtained:
Type in all cases: cell-based, rat
IR = experiment: Phosphorylation of insulin receptor in L6 myotubes (immunoprecipitation, western blot); conditions: 0.1–10 nM, 15 min, all concentrations tested
Description: (§1) For in vitro cell culture experiments, after serum starvation for 18 h, myotubes were treated with various concentrations of quercetin or isorhamnetin (0.1–10 nM) for 15 min; DMSO (final 0.1%) was used as a vehicle control. As positive controls, 100 nM insulin, 1 mM AICAR, 10 nM leptin, or 100 ng/mL IL-15 were used for insulin, AMPK, JAK2/STAT, or JAK3/STAT signalling pathways, respectively. Cells were treated with insulin or AICAR for 15 min, leptin for 60 min, or IL-15 for 24 h. Whole protein and plasma membrane fractions were prepared from myotubes, as previously described. For in vivo experiment, plasma membrane fraction and tissue lysate of soleus muscle were prepared.
(§2) Translocation of GLUT4 to the plasma membrane, as well as expression and phosphorylation levels of GLUT4-related regulators were estimated by western blot analysis. Briefly, equal amounts of proteins were separated by sodium dodecyl sulfate-polyacrylamide gel electrophoresis (SDS-PAGE). […] Specific immune complexes were developed using ImmunoStar® LD and detected with an ATTO Light-Capture II Western Blotting Detection System. Individual band density was calculated by ImageJ and normalized to the control. […]

AMPK = experiment: Phosphorylation of AMPK in L6 myotubes (western blot); conditions: 15 min
Description: (§3) In vitro cultured cell experiments were conducted according to a previously described protocol[6],[14]. Briefly, L6 myoblasts derived from rat skeletal muscle and of less than 40 passages were maintained in MEM supplemented with 10% foetal bovine serum (FBS) and antibiotics (100 U/ml penicillin and 100 μg/ml streptomycin) at 37 °C under a humidified atmosphere condition of 5% CO2 and 95% air. In each experiment, cells (2.2 × 10^4 cells/ml) were seeded into 96-well plates or 60-mm dishes for induction of differentiation into mature myotubes. After reaching confluence, cells were supplemented with differentiation medium containing 2% FBS and the same antibiotics for 7 days. Cells were used for each experiment after morphological analysis of differentiation status using phase-contrast microscopy. To explore the contribution of CaMKKβ or intracellular-free calcium ions in quercetin- and isorhamnetin-stimulated GLUT4 translocation, L6 cells were incubated in the presence or absence of 10 μM STO-609 and 25 μM […], respectively, for 30 min prior to treatment with either quercetin or isorhamnetin.
as §1
(§4) Translocation of GLUT4 to the plasma membrane, as well as expression and phosphorylation levels of GLUT4-related regulators were estimated by western blot analysis. Briefly, equal amounts of proteins were separated by sodium dodecyl sulfate-polyacrylamide gel electrophoresis (SDS-PAGE). Separated proteins were transferred onto a polyvinylidene fluoride membrane and nonspecific binding sites were blocked using either Blocking One (to detect unphosphorylated proteins) or Blocking One-P (to detect phosphoproteins). The membrane was incubated overnight with an appropriate primary antibody for GLUT4 (1:5000), IR (1:10000), p-IRS1 (1:5000), IRS1 (1:5000), p-PI3K (1:5000), PI3K (1:10000), p-Akt (1:5000), Akt (1:10000), p-AMPKα (1:5000), AMPKα (1:10000), p-ACC (1:5000), ACC (1:10000), p-LKB1 (1:5000), LKB1 (1:10000), p-JAK2 (1:5000), JAK2 (1:5000), p-JAK3 (1:5000), JAK3 (1:10000), p-STAT1 (1:5000), STAT1 (1:10000), p-STAT3 (1:5000), STAT3 (1:10000), p-STAT5 (1:5000), STAT5 (1:10000), or β-actin (1:20000), and subsequently treated with the corresponding horseradish peroxidase-conjugated secondary antibody (1:50000) for 1 h. Specific immune complexes were developed using ImmunoStar® LD and detected with an ATTO Light-Capture II Western Blotting Detection System. Individual band density was calculated by ImageJ and normalized to the control.
(§5) 42 after morphological analysis of differentiation status using phase-contrast microscopy.
(§6) 43 Preparation of whole protein and plasma membrane fractions After serum starvation
(§7) 44 for 18 h, myotubes were treated with various concentrations of quercetin or isorhamnetin (1–
45 10 μM) for 15 min; DMSO (final 0.1%) was used as a vehicle control. As positive controls, […]

STAT1 = experiment: Phosphorylation of STAT1 in L6 myotubes (western blot); conditions: 0.1–10 nM, 15 min
Description: as §1
(§8) Translocation of GLUT4 to the plasma membrane, as well as expression and phosphorylation levels of GLUT4-related regulators were estimated by western blot analysis. Briefly, equal amounts of proteins were separated by sodium dodecyl sulfate-polyacrylamide gel electrophoresis (SDS-PAGE). […] Specific immune complexes were developed using ImmunoStar® LD and detected with an ATTO Light-Capture II Western Blotting Detection System. Individual band density was calculated by ImageJ and normalized to the control.

Akt = experiment: Phosphorylation of Akt in L6 myotubes (western blot); conditions: 15 min; for Akt phosphorylation at Ser473: higher concentrations (1 μM and 10 μM)
Description: as §1, §4, §5, §6, §7
45 10 μM) for 15 min; DMSO (final 0.1%) was used as a vehicle control. As positive controls,
46 100 nM insulin, 1 mM AICAR, or 10 nM leptin were used for insulin, AMPK or JAK2/STAT
47 signalling pathways, respectively. Cells were treated with insulin or AICAR for 15 min, or
48 leptin for 60 min. […]
(§9) 59 complexes were developed using ImmunoStar® LD and detected with an ATTO Light-Capture
(§10) 60 Ⅱ Western Blotting Detection System. Individual band density was calculated by ImageJ and […]

GLUT4 [1] = experiment: GLUT4 translocation in L6 myotubes after siRNA knockdown of AMPKα, JAK2 or JAK3; conditions: for compound-induced GLUT4 translocation after siRNA for AMPK: siAMPKα 50 nM 48 h, 1 mM AICAR; for compound-induced GLUT4 translocation after siRNA for AMPK / compound-induced GLUT4 translocation after siRNA for JAK2: 1 nM quercetin or isorhamnetin; for compound-induced GLUT4 translocation after siRNA for JAK2: siJAK2 50 nM 48 h, 10 nM leptin
Description: as §1, §4
Mature myotubes were cultured in antibiotic-free medium and transfected with siRNA at a final concentration of 50 nM using Lipofectamine RNAiMAX transfection reagent according to the manufacturer’s instructions. In brief, mature myotubes were transfected with siRNA in Opti-MEM for 48 h. Subsequently, the medium was changed to fresh Opti-MEM and cells were treated with the indicated concentrations of quercetin or isorhamnetin.

JAK2 = experiment: Phosphorylation of JAK2 in L6 myotubes (western blot); conditions: 15 min; for phosphorylation of JAK2: higher concentrations (1 μM and 10 μM)
Description: as §1
as §2, with “(SDS-PAGE). Separated proteins were transferred onto a polyvinylidene fluoride membrane and nonspecific binding sites were blocked using either Blocking One (to detect unphosphorylated proteins) or Blocking One-P (to detect phosphoproteins).” for “(SDS-PAGE).”
as §9, §10

GLUT4 [2] = experiment: GLUT4 translocation to the plasma membrane in L6 myotubes (western blot); conditions: for GLUT4 translocation to the plasma membrane / expression level of GLUT4: 15 min; for expression level of GLUT4: 0.1–10 nM
Description: as §3, §1, §4

IRS1 = experiment: Phosphorylation of IRS1 in L6 myotubes (western blot); conditions: 0.1–10 nM, 15 min
Description: as §1, §8

[3] = higher concentrations (1 μM and 10 μM)

| SMILES | phosphorylation of insulin receptors (IRs) (IR) | AMPK phosphorylation (AMPK; [3]) | phosphorylation of STAT1 (STAT1) | Akt phosphorylation (Akt; 0.1–10 nM) | Akt phosphorylation at Ser473 (Akt) | compound-induced GLUT4 translocation after siRNA for AMPK (GLUT4 [1]) | compound-induced GLUT4 translocation after siRNA for JAK2 (GLUT4 [1]) | compound-induced GLUT4 translocation after siRNA for JAK3 (GLUT4 [1]; siJAK3 50 nM 48 h, 1 nM isorhamnetin, not significant) | phosphorylation of JAK2 (JAK2) | JAK2 phosphorylation (JAK2; physiological concentration range (0.1–10 nM)) | GLUT4 translocation to the plasma membrane (GLUT4 [2]; 1 nM) | GLUT4 translocation to the plasma membrane (GLUT4 [2]; 10 nM) | expression level of GLUT4 (GLUT4 [2]) | AMPK phosphorylation (AMPK; 0.1 nM and 1 nM) | phosphorylation of IRS1 (IRS1) | Akt phosphorylation at Thr308 and Ser473 (Akt; 10 nM) | GLUT4 translocation to the plasma membrane (GLUT4 [2]; 0.1 nM) | time-dependent changes in GLUT4 translocation (GLUT4 [2]; 1 nM, monitored 0–240 min) |
| --- | --- | --- | --- | --- | --- | --- | --- | --- | --- | --- | --- | --- | --- | --- | --- | --- | --- | --- |
| COc1cc(-c2oc3cc(O)cc(O)c3c(=O)c2O)ccc1O [isorhamnetin, 3′-O-methyl quercetin] | failed to activate | induced phosphorylation of AMPK | but not STAT1 | did not affect Akt phosphorylation | significantly increased Akt phosphorylation | failed to suppress | abolished | slightly decreased | induced phosphorylation of JAK2 | effectively promoted | significantly increased GLUT4 translocation | significantly increased GLUT4 translocation | remained unchanged |  |  |  |  |  |
| O=c1c(O)c(-c2ccc(O)c(O)c2)oc2cc(O)cc(O)c12 [quercetin, 3,3′,4′,5,7-pentahydroxy flavone] | failed to activate | induced phosphorylation of AMPK |  |  | significantly increased Akt phosphorylation | almost completely abolished | without affecting |  | induced phosphorylation of JAK2 |  | significantly increased GLUT4 translocation | significantly increased GLUT4 translocation | remained unchanged | promoted AMPK phosphorylation | dose-dependently promoted | increased Akt phosphorylation | significantly increased GLUT4 translocation | bell-shaped curve |
